This note sets out measurements from US12358886B2, “Heterocyclic compounds for use in the treatment of cancer” (Artios Pharma Limited, priority 2019, dated 2025).

The target of the first experiment is Polθ protein (amino acids 2-2590) (Homo sapiens, UniProt O75417). Description: Polθ full length enzyme potency assay (PicoGreen). Conditions: Polθ IC50 (nM), full length N-His, C-term FLAG tagged Polθ, PicoGreen fluorescence, 12 point concentration response.
Chain of Polθ protein (amino acids 2-2590) (O75417 2-2590): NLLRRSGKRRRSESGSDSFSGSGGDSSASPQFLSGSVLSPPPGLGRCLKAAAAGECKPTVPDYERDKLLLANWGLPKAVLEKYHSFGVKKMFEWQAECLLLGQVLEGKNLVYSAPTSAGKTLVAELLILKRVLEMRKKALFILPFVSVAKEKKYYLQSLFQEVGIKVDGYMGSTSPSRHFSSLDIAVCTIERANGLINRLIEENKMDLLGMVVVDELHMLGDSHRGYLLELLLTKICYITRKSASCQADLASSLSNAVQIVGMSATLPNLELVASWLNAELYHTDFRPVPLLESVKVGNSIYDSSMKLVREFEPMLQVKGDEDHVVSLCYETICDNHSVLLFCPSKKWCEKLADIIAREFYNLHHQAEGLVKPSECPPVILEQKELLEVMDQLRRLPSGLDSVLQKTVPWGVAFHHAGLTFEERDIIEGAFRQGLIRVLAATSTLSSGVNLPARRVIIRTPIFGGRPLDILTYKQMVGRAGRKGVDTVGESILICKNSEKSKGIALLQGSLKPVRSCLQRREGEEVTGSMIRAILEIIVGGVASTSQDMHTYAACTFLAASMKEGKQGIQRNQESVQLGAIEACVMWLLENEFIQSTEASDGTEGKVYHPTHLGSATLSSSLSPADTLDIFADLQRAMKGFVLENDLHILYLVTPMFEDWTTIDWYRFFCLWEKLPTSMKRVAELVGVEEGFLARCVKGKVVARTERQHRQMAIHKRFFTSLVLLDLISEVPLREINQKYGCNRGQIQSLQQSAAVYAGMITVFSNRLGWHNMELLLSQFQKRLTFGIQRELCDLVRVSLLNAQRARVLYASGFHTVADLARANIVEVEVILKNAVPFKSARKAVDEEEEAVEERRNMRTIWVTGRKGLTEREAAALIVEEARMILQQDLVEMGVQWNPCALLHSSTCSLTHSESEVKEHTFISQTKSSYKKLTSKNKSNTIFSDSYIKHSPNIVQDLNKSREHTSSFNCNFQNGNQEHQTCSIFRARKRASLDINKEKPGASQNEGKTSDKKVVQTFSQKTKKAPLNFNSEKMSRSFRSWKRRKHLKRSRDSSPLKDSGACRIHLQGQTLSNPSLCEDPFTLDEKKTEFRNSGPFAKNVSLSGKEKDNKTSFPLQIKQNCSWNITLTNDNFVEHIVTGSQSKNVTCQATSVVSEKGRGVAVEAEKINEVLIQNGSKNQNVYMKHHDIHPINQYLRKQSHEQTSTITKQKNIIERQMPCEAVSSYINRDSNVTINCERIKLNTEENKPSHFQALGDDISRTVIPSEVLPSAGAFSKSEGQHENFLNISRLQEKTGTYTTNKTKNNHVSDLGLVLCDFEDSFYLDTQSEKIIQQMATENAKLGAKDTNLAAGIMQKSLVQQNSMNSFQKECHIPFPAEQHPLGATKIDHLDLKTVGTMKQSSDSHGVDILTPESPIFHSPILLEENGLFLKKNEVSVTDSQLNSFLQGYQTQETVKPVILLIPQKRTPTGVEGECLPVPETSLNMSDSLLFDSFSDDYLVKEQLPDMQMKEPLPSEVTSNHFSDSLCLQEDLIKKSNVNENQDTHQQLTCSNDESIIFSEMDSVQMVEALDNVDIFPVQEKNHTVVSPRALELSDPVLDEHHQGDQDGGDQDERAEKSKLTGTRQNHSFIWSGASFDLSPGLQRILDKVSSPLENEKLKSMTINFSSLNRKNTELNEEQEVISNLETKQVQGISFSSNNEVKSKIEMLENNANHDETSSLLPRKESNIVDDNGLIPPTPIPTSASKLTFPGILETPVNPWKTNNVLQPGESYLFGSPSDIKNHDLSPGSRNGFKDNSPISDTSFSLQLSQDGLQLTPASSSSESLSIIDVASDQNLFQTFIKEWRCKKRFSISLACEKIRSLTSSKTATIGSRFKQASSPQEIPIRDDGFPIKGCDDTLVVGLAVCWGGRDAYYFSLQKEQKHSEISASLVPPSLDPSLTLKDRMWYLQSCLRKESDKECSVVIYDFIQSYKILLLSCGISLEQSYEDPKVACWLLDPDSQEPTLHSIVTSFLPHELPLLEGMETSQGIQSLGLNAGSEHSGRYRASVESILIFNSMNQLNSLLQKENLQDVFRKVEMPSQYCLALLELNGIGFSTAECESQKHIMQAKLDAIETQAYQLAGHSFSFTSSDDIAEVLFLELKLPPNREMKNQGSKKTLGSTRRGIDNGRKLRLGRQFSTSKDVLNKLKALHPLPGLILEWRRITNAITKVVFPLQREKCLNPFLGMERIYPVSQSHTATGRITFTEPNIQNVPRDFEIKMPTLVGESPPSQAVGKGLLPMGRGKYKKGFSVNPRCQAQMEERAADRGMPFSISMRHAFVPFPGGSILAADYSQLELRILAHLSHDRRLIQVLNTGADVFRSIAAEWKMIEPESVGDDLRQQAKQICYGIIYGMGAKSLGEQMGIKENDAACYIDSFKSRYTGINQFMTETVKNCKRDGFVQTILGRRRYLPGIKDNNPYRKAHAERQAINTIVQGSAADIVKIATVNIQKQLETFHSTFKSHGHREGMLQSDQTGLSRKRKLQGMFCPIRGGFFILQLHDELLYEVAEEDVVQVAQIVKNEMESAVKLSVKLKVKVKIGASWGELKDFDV
Take `Cc1cc(C(C)C(F)(F)F)cc(N2C(=O)OC[C@H]2C(=O)N(C)c2ccc(F)c(Cl)c2)n1` (stereo partly drawn) [Example 124, (4S)—N-(3-Chloro-4-fluorophenyl)-N-methyl-3-(6-methyl-4-(1,1,1-trifiuoropropan-2-yl)pyridin-2-yl)-2-oxooxazolidine-4-carboxamide]: half-maximal inhibition (IC50) was put at 304 nM.

As for `Cc1cc(C(F)(F)F)cc(N2C(=O)N(CC(O)CN(C)C)C[C@H]2C(=O)N(C)c2ccc(F)c(Cl)c2F)n1` (stereo partly drawn) [Example 214, (4S)—N-(3-Chloro-2,4-difluorophenyl)-1-(3-(dimethylamino)-2-hydroxypropyl)-N-methyl-3-(6-methyl-4-(trifluoromethyl)pyridin-2-yl)-2-oxoimidazolidine-4-carboxamide], half-maximal inhibition (IC50) required 11 nM.

In the case of `CCN(C(=O)[C@@H]1C[C@H](N2CCOC[C@@H]2CO)CN1c1nc(C)cc(C(F)(F)F)c1C#N)c1ccc(F)c(Cl)c1` [Example 152, (2S,4S)-N-(3-Chloro-4-fluorophenyl)-1-(3-cyano-6-methyl-4-(trifluoromethyl)pyridin-2-yl)-N-ethyl-4-((S)-3-(hydroxymethyl)morpholino)pyrrolidine-2-carboxamide], inhibition was half-maximal at 26 nM (IC50).

As for `Cc1cc(C(F)(F)F)c(C#N)c(N2C[C@@H](O)C[C@H]2C(=O)N(C)c2cc(F)c(F)cc2F)n1` [Example 20, (2S,4S)-1-(3-Cyano-6-methyl-4-(trifluoromethyl)pyridin-2-yl)-4-hydroxy-N-methyl-N-(2,4,5-trifluorophenyl)pyrrolidine-2-carboxamide], the IC50 (commonly the concentration needed to halve the response being measured) is 67 nM.

`Cc1cc(C(F)(F)F)cc(N2C(=O)N(CCN3CCC3CO)C[C@H]2C(=O)N(C)c2ccc(F)c(Cl)c2F)n1` (stereo partly drawn) [Example 203, (4S)-N-(3-Chloro-2,4-difluoro-phenyl)-1-(2-(2-(hydroxymethyl)-azetidin-1-yl)-ethyl)-N-methyl-3-(6-methyl-4-(trifluoromethyl)pyridin-2-yl)-2-oxoimidazolidine-4-carboxamide] had an IC50 of 10 nM.

With `Cc1cc(C(F)(F)F)cc(N2C(=O)N(CC(C)O)C[C@H]2C(=O)N(C)c2ccc(F)c(Cl)c2)n1` (stereo partly drawn) [Example 160, (4S)—N-(3-Chloro-4-fluorophenyl)-1-(2-hydroxypropyl)-N-methyl-3-(6-methyl-4-(trifluoromethyl)pyridin-2-yl)-2-oxoimidazolidine-4-carboxamide], 6 nM corresponded to half-maximal inhibition (IC50).

In turn, `[2H]C([2H])([2H])N(C(=O)[C@@H]1[C@H](O)[C@H](O)C(=O)N1c1cc(C(F)(F)F)cc(C)n1)c1ccc(F)c(Cl)c1` [Example 163, (2S,3S,4S)—N-(3-Chloro-4-fluorophenyl)-3,4-dihydroxy-N-(methyl-d3)-1-(6-methyl-4-(trifluoromethyl)pyridin-2-yl)-5-oxopyrrolidine-2-carboxamide] came in with an IC50 of 11 nM.

With `CCN(C(=O)[C@@H]1CNC(=O)N1c1cc(C(F)(F)F)cc(C)n1)c1ccc(F)c(Cl)c1` [Example 157, (S)—N-(3-Chloro-4-fluorophenyl)-N-ethyl-3-(6-methyl-4-(trifluoromethyl)pyridin-2-yl)-2-oxoimidazolidine-4-carboxamide], inhibition was half-maximal at 32 nM (IC50).

Consider `C=Cc1cc(C(F)(F)F)cc(N2C(=O)OC[C@H]2C(=O)N(C)c2ccc(F)c(Cl)c2)n1` [Example 114, (S)—N-(3-Chloro-4-fluorophenyl)-N-methyl-2-oxo-3-(4-(trifluoromethyl)-6-vinylpyridin-2-yl)oxazolidine-4-carboxamide], for which the IC50 stood at 46 nM.

The compound `Cc1cc(C(F)(F)F)cc(N2C(=O)NC[C@H]2C(=O)N(C)c2ccc3c(Cl)c[nH]c3n2)n1` [Example 240, (S)—N-(3-Chloro-1H-pyrrolo[2,3-b]pyridin-6-yl)-N-methyl-3-(6-methyl-4-(trifluoromethyl)pyridin-2-yl)-2-oxoimidazolidine-4-carboxamide] showed a half-maximal inhibitory concentration (IC50) of 7 nM.

`Cc1cc(C(F)(F)F)cc(N2C(=O)N(CCS(C)(=O)=O)C[C@H]2C(=O)N(C)c2ccc(F)c(Cl)c2)n1` [Example 180, (S)—N-(3-Chloro-4-fluorophenyl)-N-methyl-3-(6-methyl-4-(trifluoromethyl)pyridin-2-yl)-1-(2-(methylsulfonyl)ethyl)-2-oxoimidazolidine-4-carboxamide] registered an IC50 of 9 nM.

As to `Cc1cc(C(F)(F)F)cc(N2C(=O)N(CCN3CC[C@@H](O)C3)C[C@H]2C(=O)N(C)c2ccc(F)c(Cl)c2)n1` [Example 197, (S)-N-(3-Chloro-4-fluorophenyl)-1-(2-((R)-3-hydroxypyrrolidin-1-yl)ethyl)-N-methyl-3-(6-methyl-4-(trifluoromethyl)pyridin-2-yl)-2-oxoimidazolidine-4-carboxamide], the half-inhibitory concentration (IC50) was determined as 19 nM.

In the case of `CCN(C(=O)[C@@H]1C[C@H](N(C)[C@@H]2CCC[C@H]2O)CN1c1cc(C(F)(F)F)cc(C)n1)c1ccc(F)c(F)c1` [Example 141, (2S,4S)-N-(3,4-Difluorophenyl)-N-ethyl-4-(((1R,2R)-2-hydroxycyclopentyl)(methyl)amino)-1-(6-methyl-4-(trifluoromethyl)pyridin-2-yl)pyrrolidine-2-carboxamide], half-maximal inhibition (IC50) required 56 nM.

Turning to `CCN(C(=O)[C@@H]1C[C@H](N)C(=O)N1c1cc(C(F)(F)F)cc(C)n1)c1ccc(F)c(Cl)c1` [Example 61, (2S,4S)-4-Amino-N-(3-chloro-4-fluorophenyl)-N-ethyl-1-(6-methyl-4-(trifluoromethyl)pyridin-2-yl)-5-oxopyrrolidine-2-carboxamide], the IC50 came to 136 nM.

`Cc1cc(C(F)(F)F)cc(N2C(=O)[C@@H](O)[C@@H](O)[C@H]2C(=O)N(C)c2ccc(F)c(Cl)c2F)n1` [Example 70, (2S,3S,4S)—N-(3-Chloro-2,4-difluorophenyl)-3,4-dihydroxy-N-methyl-1-(6-methyl-4-(trifluoromethyl)pyridin-2-yl)-5-oxopyrrolidine-2-carboxamide] had an IC50 of 4 nM.

Take `Cc1cc(C(F)(F)F)c(C#N)c(N2C[C@@H](O)C[C@H]2C(=O)N(C)c2ccc(C(F)(F)F)c(F)c2)n1` [Example 19, (2S,4S)-1-(3-Cyano-6-methyl-4-(trifluoromethyl)pyridin-2-yl)-N-(3-fluoro-4-(trifluoromethyl)-phenyl)-4-hydroxy-N-methyl-pyrrolidine-2-carboxamide]: the IC50 was determined as 524 nM.

Take `COc1cc(N(C)C(=O)[C@@H]2COC(=O)N2c2cc(C(F)(F)F)cc(C)n2)ccc1Cl` [Example 91, (S)-N-(4-Chloro-3-methoxyphenyl)-N-methyl-3-(6-methyl-4-(trifluoromethyl)pyridin-2-yl)-2-oxooxazolidine-4-carboxamide]: the IC50 came to 81 nM.

`Cc1cc(C(F)(F)F)cc(N2C(=O)[C@@H](O)[C@@H](O)[C@H]2C(=O)N(C)c2ccc3cnn(C)c3c2)n1` [Example 168, (2S,3S,4S)-3,4-Dihydroxy-N-methyl-N-(1-methyl-1H-indazol-6-yl)-1-(6-methyl-4-(trifluoromethyl)pyridin-2-yl)-5-oxopyrrolidine-2-carboxamide] came in with a 50% inhibitory concentration (IC50) of 71 nM.

As for `CCN(C(=O)[C@H]1C[C@@H](N(C)C)CN1c1nc(C)cc(C)c1C#N)c1cccc(C)c1` (stereo in doubt) [Example 39, (2R,4R)-1-(3-Cyano-4,6-dimethylpyridin-2-yl)-4-(dimethylamino)-N-ethyl-N-(m-tolyl)pyrrolidine-2-carboxamide], the IC50 stood at 27 nM.

Compound `Cc1cc(C(F)(F)F)cc(N2C(=O)[C@@H](O)[C@@H](O)[C@H]2C(=O)N(C)c2ccc(F)c(C)n2)n1` [Example 170, (2S,3S,4S)—N-(5-Fluoro-6-methylpyridin-2-yl)-3,4-dihydroxy-N-methyl-1-(6-methyl-4-(trifluoromethyl)pyridin-2-yl)-5-oxopyrrolidine-2-carboxamide] yielded an IC50 of 193 nM.

`Cc1cc(C(F)(F)F)cc(N2C(=O)OC[C@H]2C(=O)N(C)c2ccc(F)c(Cl)c2)n1` [Example 83, (S)—N-(3-Chloro-4-fluorophenyl)-N-methyl-3-(6-methyl-4-(trifluoromethyl)pyridin-2-yl)-2-oxooxazolidine-4-carboxamide]: half-maximal inhibition (IC50) required 16 nM.

As to `Cc1cc(C(F)(F)F)cc(N2C(=O)OC[C@H]2C(=O)N(C)c2ccc3cn[nH]c3c2)n1` [Example 174, (S)—N-(1H-Indazol-6-yl)-N-methyl-3-(6-methyl-4-(trifluoromethyl)pyridin-2-yl)-2-oxooxazolidine-4-carboxamide], the half-maximal inhibitory concentration (IC50) is 158 nM.

Compound `CCN(C(=O)[C@@H]1[C@H](O)[C@H](O)CN1c1nc(C)cc(C(F)(F)F)c1C#N)c1ccc(F)c(Cl)c1` [Example 57, (2S,3S,4R)-N-(3-Chloro-4-fluoro-phenyl)-1-(3-cyano-6-methyl-4-(trifluoromethyl)pyridin-2-yl)-N-ethyl-3,4-dihydroxypyrrolidine-2-carboxamide] registered a half-inhibitory concentration (IC50) of 10 nM.

Take `Cc1cc(C(F)(F)F)cc(N2C(=O)OC[C@H]2C(=O)N(C)c2ccc3cccnc3c2)n1` [Example 178, (S)—N-Methyl-3-(6-methyl-4-(trifluoromethyl)pyridin-2-yl)-2-oxo-N-(quinolin-7-yl)oxazolidine-4-carboxamide]: the IC50 amounted to 833 nM.

Turning to `Cc1cc(C(F)(F)F)cc(N2C(=O)N(CC3(O)CNC3)C[C@H]2C(=O)N(C)c2ccc(F)c(Cl)c2F)n1` [Example 224, (S)—N-(3-Chloro-2,4-difluorophenyl)-1-((3-hydroxyazetidin-3-yl)methyl)-N-methyl-3-(6-methyl-4-(trifluoromethyl)pyridin-2-yl)-2-oxoimidazolidine-4-carboxamide], half-maximal inhibition (IC50) was put at 6 nM.

The same experiment, now with this note: read-out: Polθ IC50; full length N-His, C-term FLAG tagged Polθ, PicoGreen fluorescence, 12 point concentration response.
On to `CCN(C(=O)[C@@H]1[C@H](O)[C@H](O)C(=O)N1c1cc(C(F)(F)F)cc(C)n1)c1ccc(F)c(Cl)c1` [Example 66, (2S,3S,4S)-N-(3-Chloro-4-fluoro-phenyl)-N-ethyl-3,4-dihydroxy-1-(6-methyl-4-(trifluoromethyl)pyridin-2-yl)-5-oxopyrrolidine-2-carboxamide], for which the IC50 amounted to 20 nM.

Consider `Cc1cc(C(F)(F)F)cc(N2C(=O)OC[C@H]2C(=O)N(C)c2cccc(Cl)c2)n1` [Example 87, (S)-N-(3-Chlorophenyl)-N-methyl-3-(6-methyl-4-(trifluoromethyl)pyridin-2-yl)-2-oxooxazolidine-4-carboxamide], for which the IC50 was found to be 15 nM.
